Where a SMILES comes first, the peptide text is derived from it.
Key:
[1] = tested on: C9 (Human oral cancer cell); assay: MTT cytotoxicity, C9; assay type: cell-based; settings: C9, 24 hours incubation
Description: (§1) The MTT assay is a colorimetric method for measuring the activity of enzymes in living cells that reduces Thiazolyl blue tetrazolium bromide (MTT) to formazan dyes showing a purple color. In this embodiment, a colorimetric 3-(4.5-dimethylthiazol-2-yl)-2.5-diphenyltetrazodium bromide (MTT) viability assay was used to assess the in vitro cytotoxicity of oncolytic peptides.
(§2) The half inhibition concentration (IC50) is the concentration required by the oncolytic peptides to reach fifty percent inhibition. In one embodiment, the oncolytic peptides were used for IC50 test via MTT colorimetric assay.
(§3) All cancer cell lines were seeded in a 96-well plate with a concentration of 5000-8000 cells/100 μl/well and incubated for 24 hrs. After medium was removed, 100 μl fresh medium containing peptide (ranging from 50 μM to 0.8 μM) was added to the wells. Following 24 hours incubation, fresh medium with MTT (0.5 mg/ml) was replaced and incubated for 3 hours. After medium/MTT was removed, DMSO was added at 100 μl for dissolving the formazan crystal. Cell survival rate was calculated by measuring the absorbance at 540 nm using a Multi-labeled Microplate Reader (Sunrise™, TECAN).

Panc02 = assay: MTT cytotoxicity, Panc02; assay type: cell-based, murine; settings: Panc02, 24 hours incubation
Description: as §1, §2
(§4) Human lung cancer lines PC9 and A549 and murine pancreatic cancer cell line Panc02 were cultured in RPMI medium supplemented with 10% fetal bovine serum and antibiotic in this embodiment. Additionally, murine hepatoma cell line Hepa 1-6, murine melanoma cell line B16-F10, murine fibrosarcoma cell line MN-11, murine mammary cancer cell line E0771 and human diploid fibroblast (HFW) were cultured in DMEM medium supplemented with 10% fetal bovine serum and antibiotic. Cells were cultured in a humidified incubator containing 5% CO2 at 37° C.
as §3

[2] = tested on: A375 (human malignant melanoma); assay: MTT cytotoxicity, A375; assay type: cell-based; settings: A375, 24 hours incubation
Description: as §1, §2, §3

B16-F10 melanoma = assay type: in vivo; settings: B16-F10 tumor-bearing C57BL/6 mice
Experimental: FIGS. 1A-1B are schematic diagrams of B16-F10 melanoma experiments. The right flank of the mouse was administrated with SEQ ID NO:9, and the left flank of the mouse was untreated (tumor only) in FIG. 1A. […] (3×10^6B16-F10 cells per mouse/50 μl RPMI-1640). Palpable tumors (20-30 mm^3) were injected […] (IT.) with single doses of SEQ ID NO:9 dissolved in PBS (1.0 mg peptide/50 μl PBS) once a day for 5 consecutive days, and the vehicle control was saline only (0.9% NaCl).
(§5) Female C57BL/6 mice (4- to 6-week old) as allogeneic model animals were purchased from BioLASCO Taiwan Co., Ltd. and maintained in a specific pathogen-free and controlled environment. During the experiments, female mice, weighing 18.0-24.0 g each, were kept in groups of 4 to 6 animals per cage under climate-controlled conditions, with 12 h light/dark cycles and an ambient temperature. The mice were housed in an enriched individually ventilated cage (IVC) system with free access to standard rodent chow and water ad libitum. The animals were anesthetized during the experimental procedures with 2.5% isoflurane gas. The animals were monitored daily. All procedures were conducted according to the regulations of Laboratory Animal Care and Use Committee or Group Setup and Management and the law of Animal Protection.
Palpable tumors (for example, 20-30 mm^3 for B16-F10 tumor-bearing mice, 100 mm^3 for MN-11 tumor-bearing mice, 75 mm^3 for E0771 tumor-bearing mice) were injected (IT.) with single doses of SEQ ID NO:9 dissolved in PBS (1.0 mg peptide/50 μl PBS) once a day for 5 consecutive days, and the vehicle control was saline only (0.9% NaCl).
Tumor size was measured 3 times a week using a caliper, and the volume of tumors was calculated using the following formula: Tumor size (mm^3)=0.5×(width^2×length). The results were shown as volume±SEM. The survival rates of tumor-bearing mice were observed and recorded continuously until all animals died.
To evaluate the effect of SEQ ID NO:9 in vivo, the B16-F10 allogeneic model was used in C57BL/6 mice (FIGS. 1A-1B). […]

[3] = tested on: EO771 (Murine mammary adenocarcinoma); assay: MTT cytotoxicity, EO771; assay type: cell-based; settings: EO771, 24 hours incubation
Description: as §1, §2, §4, §3

[4] = tested on: NCI-N87 (Human gastric carcinoma); assay: MTT cytotoxicity, NCI-N87; assay type: cell-based; settings: NCI-N87, 24 hours incubation
Description: as §1, §2, §3

HFW (Human fibroblast) = assay: MTT cytotoxicity, HFW; assay type: cell-based; settings: 24 hours incubation
Description: as §1, §2, §4, §3

[5] = tested on: SAS (Human tongue carcinoma); assay: MTT cytotoxicity, SAS; assay type: cell-based; settings: 24 hours incubation
Description: as §1, §2, §3

E0771 breast cancer = assay type: in vivo; settings: E0771 tumor-bearing C57BL/6 mice
Experimental: FIGS. 7A-7B are schematic diagrams of E0771 breast cancer experiments. FIG. 7A: The right flank of the mouse was administrated with SEQ ID NO:9. […] (2×10^5E0771 cells per mouse/50 μl RPMI-1640). Palpable tumors (75 mm^3) were injected (IT.) with single doses of SEQ ID NO:9 dissolved in PBS (1.0 mg peptide/50 μl PBS) once a day for 5 consecutive days, and the vehicle control was saline only (0.9% NaCl).
as §5, with “All procedures were conducted according to the regulations of Laboratory Animal Care and Use Committee or Group Setup and Management and the law of Animal Protection.” left out
Tumor size was measured 3 times a week using a caliper, and the volume of tumors was calculated using the following formula: Tumor size (mm^3)=0.5×(width^2×length). […] The survival rates of tumor-bearing mice were observed and recorded continuously until all animals died. […]

RBC (Human blood cell) = assay: Cytotoxicity, RBC; assay type: cell-based
Description: as §2

[6] = tested on: OECM-1 (Human oral cancer cell); assay: MTT cytotoxicity, OECM-1; assay type: cell-based; settings: OECM-1, 24 hours incubation
Description: as §1, §2, §3

[7] = tested on: HepG2 Cancer Cells (Human hepatocellular carcinoma); assay: MTT cytotoxicity, HepG2; assay type: cell-based; settings: HepG2, 24 hours incubation
Description: as §1, §2, §3

[8] = tested on: B16-F10 (Murine skin malignant melanoma); assay: MTT cytotoxicity, B16-F10; assay type: cell-based; settings: B16-F10, 24 hours incubation
Description: as §1, §2, §4, §3

[9] = tested on: A549 (Human non-small cell lung cancer cell); assay: MTT cytotoxicity, A549; assay type: cell-based; settings: A549, 24 hours incubation
Description: as §1, §2, §4, §3

[10] = IT. 1.0 mg once a day for 5 days, vs untreated controls
[11] = IT. 1.0 mg peptide/50 μl PBS once a day for 5 consecutive days, vs saline control

## CC(C)C[C@H](NC(=O)[C@H](Cc1ccc2ccccc2c1)NC(=O)[C@H](CCCCN)NC(=O)[C@H](CC(C)C)NC(=O)[C@H](Cc1c[nH]c2ccccc12)NC(=O)[C@H](CCCCN)NC(=O)[C@H](CCCNC(=N)N)NC(=O)[C@H](Cc1c[nH]c2ccccc12)NC(=O)[C@H](CCCNC(=N)N)NC(=O)[C@H](CCCNC(=N)N)NC(=O)[C@H](CCCCN)NC(=O)[C@H](CCCCN)NC(=O)[C@H](CCCCN)NC(=O)[C@@H](N)CCCCN)C(=O)N[C@@H](C)C(=O)N[C@@H](CCCCN)C(N)=O [SEQ ID NO: 9, KKKK-RR-WRK-WLK-Nal-LA-K-NH2] (HELM PEPTIDE1{K.K.K.K.R.R.W.R.K.W.L.K.[O=C([C@H](Cc1ccc2ccccc2c1)N[*:1])[*:2]].L.A.K.[am]}$$$$V2.0; N-terminus assumed)
[1]
  IC50: 6.43 µM
Panc02
  IC50: 2.66 µM
[2]
  IC50: 3.84 µM
B16-F10 melanoma; [10]
  Survival (lifespan): extended the lifespan
B16-F10 melanoma; [11]
  Tumor growth, treated tumor (right flank): significantly inhibited tumor growth
B16-F10 melanoma; untreated left flank, peptide IT. into right flank 1.0 mg once a day for 5 days
  Tumor growth, distal tumor (left side): also inhibited
[3]
  IC50: 2.01 µM
[4]
  IC50: 2.35 µM
HFW (Human fibroblast)
  IC50: 3.38 µM
[5]
  IC50: 6.03 µM
E0771 breast cancer; [10]
  Survival (lifespan): extended the lifespan
E0771 breast cancer; [11]
  Tumor growth, treated tumor (right flank): significantly inhibited tumor growth
RBC (Human blood cell)
  IC50: 25.7 µM
[6]
  IC50: 6.36 µM
[7]
  IC50: 9.81 µM
[8]
  IC50: 7.16 µM
[9]
  IC50: 2.79 µM
